Experiment [1] addresses T1, Acetylcholinesterase (Homo sapiens, UniProt P22303). Put plainly: Inhibition of AChE (unknown origin) using acetylthiocholine iodide as substrate by Ellman's method.
Experiment [2] concerns the target T1, Acetylcholinesterase. Put plainly: Inhibition of AChE (unknown origin).

The IC50 is the concentration that inhibits the measured activity by half. Higher therefore signals lower potency.

T1 sequence (P22303 whole entry): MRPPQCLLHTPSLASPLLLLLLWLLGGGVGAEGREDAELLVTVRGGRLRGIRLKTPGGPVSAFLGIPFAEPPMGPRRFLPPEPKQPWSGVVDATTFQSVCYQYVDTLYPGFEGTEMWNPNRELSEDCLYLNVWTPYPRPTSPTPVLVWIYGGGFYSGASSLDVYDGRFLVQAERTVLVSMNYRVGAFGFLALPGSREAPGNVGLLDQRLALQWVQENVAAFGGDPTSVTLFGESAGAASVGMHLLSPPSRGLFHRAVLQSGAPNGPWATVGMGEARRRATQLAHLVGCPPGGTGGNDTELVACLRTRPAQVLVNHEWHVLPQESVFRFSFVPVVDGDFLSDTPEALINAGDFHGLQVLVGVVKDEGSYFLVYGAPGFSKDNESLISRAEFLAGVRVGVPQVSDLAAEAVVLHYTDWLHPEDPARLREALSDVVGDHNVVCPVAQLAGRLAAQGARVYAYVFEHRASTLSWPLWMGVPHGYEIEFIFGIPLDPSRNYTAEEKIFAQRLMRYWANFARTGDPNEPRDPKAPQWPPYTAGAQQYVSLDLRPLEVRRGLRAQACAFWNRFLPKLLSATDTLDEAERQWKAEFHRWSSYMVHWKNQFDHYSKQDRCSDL

Turning to `C[C@@H]1C[C@H]2CC(=O)[C@H]3CCC[N+]4([O-])CCC[C@@H]2[C@]34C1` (stereo partly drawn), the IC50 in experiment [1] is more than 100 µM.

In experiment [1], `C[C@@H]1C[C@H]2CC(=O)[C@H]3CCCN4CCC[C@@H]2[C@]34C1` had an IC50 of more than 100 µM.

With `C[C@@H]1C[C@H]2CC(=O)[C@H]3CCC[N+]4([O-])CCC[C@]2(O)[C@]34C1` (stereo partly drawn), half-maximal inhibition in experiment [2] (IC50) was put at 590 nM. In other words, the sub-micromolar range.

Values taken from ChEMBL document CHEMBL4251744, “Identification of Lycopodium Alkaloids Produced by an Ultraviolet-Irradiated Strain of Paraboeremia, an Endophytic Fungus from Lycopodium serratum var. longipetiolatum” (J Nat Prod, 2018).
